A value given as a limit tells only on which side of the number the result lay.

As a reminder, the IC50 is the concentration at which inhibition is half-maximal.

Holding throughout (format): biochemical
The target in one experiment is T1, Human factor Xa (Homo sapiens, UniProt P00742).
T1 construct: purchased Enzyme Research Laboratories, South Bend Ind
The experiment in a line: Xa assay (chromogenic substrate S-2765). The note with it: reported only as less than or greater than 30 uM; read-out: Factor Xa (II) IC50. The procedure, abridged:
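Chromogenic readout: S-2765 hydrolysis (0.15 mM) by 0.3 nM human FXa was monitored at 405 nm after 60 min at room temperature, with a time-zero background read. Buffer: 50 mM Tris-HCl, pH 8.0, 100 mM NaCl, 0.1% BSA. Inhibition is relative to buffer-only controls.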

In experiment [1] the target is T2, recombinant soluble tissue factor and recombinant human factor VIIa (TF-VIIa) (Homo sapiens, UniProt P08709).
T2 construct: conversion of coagulation factor VII to VIIa by factor Xa; purchased American Diagnostica, Greenwich CT; host or cells: soluble TF made in house in E. coli
T2 sequence (P08709 213-466 limits assumed): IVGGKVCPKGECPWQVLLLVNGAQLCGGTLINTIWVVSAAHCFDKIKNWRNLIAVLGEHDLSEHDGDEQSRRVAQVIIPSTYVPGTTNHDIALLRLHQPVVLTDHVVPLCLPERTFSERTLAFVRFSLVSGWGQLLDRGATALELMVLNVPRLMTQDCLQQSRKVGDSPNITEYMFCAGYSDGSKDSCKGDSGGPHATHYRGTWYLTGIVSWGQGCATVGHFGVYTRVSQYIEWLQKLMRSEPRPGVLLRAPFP
T2 sequence (P08709 61-212 limits assumed): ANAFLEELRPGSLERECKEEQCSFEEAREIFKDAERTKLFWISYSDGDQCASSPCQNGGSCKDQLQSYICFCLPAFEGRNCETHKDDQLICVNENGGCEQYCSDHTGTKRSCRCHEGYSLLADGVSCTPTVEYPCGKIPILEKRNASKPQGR
T2 sequence (P13726 33-251 partner limits assumed): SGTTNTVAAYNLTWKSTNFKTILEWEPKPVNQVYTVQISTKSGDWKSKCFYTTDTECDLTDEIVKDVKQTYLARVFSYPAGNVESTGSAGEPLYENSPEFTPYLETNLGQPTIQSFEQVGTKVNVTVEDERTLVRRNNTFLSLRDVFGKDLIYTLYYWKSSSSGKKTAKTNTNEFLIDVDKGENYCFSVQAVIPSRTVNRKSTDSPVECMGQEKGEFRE
The experiment in a line: TF-VIIa assay (chromogenic substrate hydrolysis). Conditions: reported only as less than or greater than 0.1 uM. In a few lines: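 Chromogenic read at OD405, compared with control for percent inhibition. Substrate N-methylsulfonyl-D-phe-gly-arg-p-nitroaniline at 0.4 mM is cleaved by recombinant human VIIa (2 nM) complexed with soluble TF (100 nM). Buffer: pH 8.0 Tris-HCl 50 mM, CaCl2 5 mM, NaCl 100 mM, BSA 0.1%.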

The test system of experiment [2] is Normal human pooled plasma. Kind of experiment: Prothrombin time (PT) clotting assay. The note with it: concentration at which prothrombin time is prolonged by 2x normal, reported as less than or greater than 50 uM. In a few lines: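 Normal human pooled plasma incubated with 100 uM compound or saline, then thromboplastin (human tissue factor) added and clotting time recorded in a coagulation machine. Compounds exceeding 3× normal PT (11.0 s) are titrated to find the concentration doubling PT.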

The next experiment has as its target T3, Human thrombin (Homo sapiens, UniProt P00734).
T3 construct: converts prothrombin (II) to thrombin (IIa); purchased Calbiochem, La Jolla, Calif
The experiment in a line: Thrombin assay (chromogenic substrate). The note with it: reported only as less than or greater than 30 uM; read-out: Thrombin (II) IC50. In a few lines: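 Percent inhibition derived by comparing OD405 nm of compound-treated and control samples. Thrombin cleavage of a p-nitroanilide chromogenic substrate provides the signal.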

T1 sequence (P00742 235-488 limits assumed): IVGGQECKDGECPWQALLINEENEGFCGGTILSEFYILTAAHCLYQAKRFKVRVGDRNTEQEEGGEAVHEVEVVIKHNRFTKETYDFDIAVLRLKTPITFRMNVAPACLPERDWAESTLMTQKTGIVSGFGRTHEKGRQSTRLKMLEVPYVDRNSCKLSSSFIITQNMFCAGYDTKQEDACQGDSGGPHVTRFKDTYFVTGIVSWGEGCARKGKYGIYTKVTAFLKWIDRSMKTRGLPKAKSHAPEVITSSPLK
T1 sequence (P00742 41-179 limits assumed): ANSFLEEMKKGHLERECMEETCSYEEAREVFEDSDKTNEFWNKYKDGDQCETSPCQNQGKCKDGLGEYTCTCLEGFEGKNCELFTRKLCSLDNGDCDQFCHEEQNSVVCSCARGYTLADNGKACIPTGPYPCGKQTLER

As for `CC(C)Nc1ncc(-c2cc(N)cc(C(=O)OC(C)C)c2)n(CC(=O)NCc2ccc(C(=N)N)cc2)c1=O.O=C(O)C(F)(F)F` [Example 124, Isopropyl 3-amino-5-[1-[2-({4-[amino(imino)methyl]benzyl}amino)-2-oxoethyl]-5-(isopropylamino)-6-oxo-1,6-dihydropyrazin-2-yl]benzoate], the IC50 is greater than 30 µM on Human factor Xa, less than 0.1 µM in experiment [1] and greater than 30 µM at Human thrombin. Also, the “PT (Prothrombin time) 2xPT” value in experiment [2] was less than 50.0 µM.

With `CC[C@H](C)NC(=O)c1cc(N)cc(-c2cnc(NC(C)C)c(=O)n2CC(=O)NCc2ccc(C(=N)N)cc2)c1.O=C(O)C(F)(F)F` [Example 127], the IC50 on Human factor Xa is greater than 30 µM; in experiment [1], less than 0.1 µM; on Human thrombin, less than 30 µM. Also, the “PT (Prothrombin time) 2xPT” value in experiment [2] is less than 50.0 µM.

Consider `CCCC(C)C(=O)Nc1cc(N)cc(-c2cnc(NC(C)C)c(=O)n2CC(=O)NCc2ccc(C(=N)N)cc2)c1.O=C(O)C(F)(F)F.O=C(O)C(F)(F)F` (centres unmarked) [Example 128], for which the IC50 on Human factor Xa is greater than 30 µM; in experiment [1], less than 0.1 µM; on Human thrombin it was greater than 30 µM. Further, the “PT (Prothrombin time) 2xPT” value in experiment [2] is less than 50.0 µM.

`CCCC(=O)Nc1cc(N)cc(-c2cnc(NC(C)C)c(=O)n2CC(=O)NCc2ccc(C(=N)N)cc2)c1.O=C(O)C(F)(F)F.O=C(O)C(F)(F)F` [Example 130]: the IC50 at Human factor Xa is greater than 30 µM; in experiment [1], less than 0.1 µM; at Human thrombin it was less than 30 µM. Also, in experiment [2], the “PT (Prothrombin time) 2xPT” value is less than 50.0 µM.

Regarding `CCC(C)C(=O)Nc1cc(N)cc(-c2cnc(NC(C)C)c(=O)n2CC(=O)NCc2ccc(C(=N)N)cc2)c1.O=C(O)C(F)(F)F.O=C(O)C(F)(F)F` (centres unmarked) [Example 131], the IC50 on Human factor Xa is greater than 30 µM; in experiment [1] it was less than 0.1 µM; on Human thrombin, less than 30 µM. Moreover, in experiment [2], the “PT (Prothrombin time) 2xPT” value is less than 50.0 µM.

`CC(C)Nc1ncc(-c2cc(N)cc(NC(=O)CC(C)(C)C)c2)n(CC(=O)NCc2ccc(C(=N)N)cc2)c1=O.O=C(O)C(F)(F)F.O=C(O)C(F)(F)F` [Example 133]: the IC50 at Human factor Xa was greater than 30 µM; in experiment [1] it was less than 0.1 µM; at Human thrombin it was less than 30 µM. Moreover, the “PT (Prothrombin time) 2xPT” value in experiment [2] was less than 50.0 µM.

For the molecule `CCC(CC)C(=O)Nc1cc(N)cc(-c2cnc(NC(C)C)c(=O)n2CC(=O)NCc2ccc(C(=N)N)cc2)c1.O=C(O)C(F)(F)F.O=C(O)C(F)(F)F` [Example 134], the IC50 is greater than 30 µM on Human factor Xa, less than 0.1 µM in experiment [1] and less than 30 µM on Human thrombin. In experiment [2], the “PT (Prothrombin time) 2xPT” value is less than 50.0 µM.

In the case of `CC(C)CCC(=O)Nc1cc(N)cc(-c2cnc(NC(C)C)c(=O)n2CC(=O)NCc2ccc(C(=N)N)cc2)c1.O=C(O)C(F)(F)F.O=C(O)C(F)(F)F` [Example 135], the IC50 on Human factor Xa was greater than 30 µM; in experiment [1], less than 0.1 µM; at Human thrombin, less than 30 µM. The “PT (Prothrombin time) 2xPT” value in experiment [2] was less than 50.0 µM.

With `CCCC(CCC)C(=O)Nc1cc(N)cc(-c2cnc(NC(C)C)c(=O)n2CC(=O)NCc2ccc(C(=N)N)cc2)c1.O=C(O)C(F)(F)F.O=C(O)C(F)(F)F` [Example 136], the IC50 at Human factor Xa was greater than 30 µM; in experiment [1], less than 0.1 µM; at Human thrombin it was less than 30 µM. The “PT (Prothrombin time) 2xPT” value in experiment [2] was less than 50.0 µM.

In the case of `CCCCC(CC)C(=O)Nc1cc(N)cc(-c2cnc(NC(C)C)c(=O)n2CC(=O)NCc2ccc(C(=N)N)cc2)c1.O=C(O)C(F)(F)F.O=C(O)C(F)(F)F` (centres unmarked) [Example 137], the IC50 on Human factor Xa was greater than 30 µM; in experiment [1], less than 0.1 µM; at Human thrombin it was less than 30 µM. In addition, the “PT (Prothrombin time) 2xPT” value in experiment [2] was less than 50.0 µM.

Turning to `CC(CC(=O)Nc1cc(N)cc(-c2cnc(NC(C)C)c(=O)n2CC(=O)NCc2ccc(C(=N)N)cc2)c1)CC(C)(C)C.O=C(O)C(F)(F)F.O=C(O)C(F)(F)F` (centres unmarked) [Example 139], the IC50 was greater than 30 µM at Human factor Xa, less than 0.1 µM in experiment [1] and less than 30 µM at Human thrombin. Besides, the “PT (Prothrombin time) 2xPT” value in experiment [2] was less than 50.0 µM.

As to `CC(C)Nc1ncc(-c2cc(N)cc(NC(=O)[C@H]3C[C@@H]3c3ccccc3)c2)n(CC(=O)NCc2ccc(C(=N)N)cc2)c1=O.O=C(O)C(F)(F)F.O=C(O)C(F)(F)F` [Example 140], the figures for the IC50 (on Human factor Xa; in experiment [1]; at Human thrombin) were greater than 30 µM, less than 0.1 µM and less than 30 µM, respectively. Also, the “PT (Prothrombin time) 2xPT” value in experiment [2] is less than 50.0 µM.

As to `CC(C)Nc1ncc(-c2cc(N)cc(NC(=O)CC3CCCC3)c2)n(CC(=O)NCc2ccc(C(=N)N)cc2)c1=O.O=C(O)C(F)(F)F.O=C(O)C(F)(F)F` [Example 141], the IC50 was greater than 30 µM at Human factor Xa, less than 0.1 µM in experiment [1] and less than 30 µM on Human thrombin. In experiment [2], the “PT (Prothrombin time) 2xPT” value was less than 50.0 µM.

Take `CC(C)Nc1ncc(-c2cc(N)cc(NC(=O)c3ccc(N(C)C)cc3)c2)n(CC(=O)NCc2ccc(C(=N)N)cc2)c1=O.O=C(O)C(F)(F)F.O=C(O)C(F)(F)F` [Example 142]: the IC50 is greater than 30 µM at Human factor Xa, less than 0.1 µM in experiment [1] and greater than 30 µM on Human thrombin. The “PT (Prothrombin time) 2xPT” value in experiment [2] is less than 50.0 µM.

`CCC(C(=O)Nc1cc(N)cc(-c2cnc(NC(C)C)c(=O)n2CC(=O)NCc2ccc(C(=N)N)cc2)c1)c1ccccc1.O=C(O)C(F)(F)F.O=C(O)C(F)(F)F` (centres unmarked) [Example 143]: the values for the IC50 (at Human factor Xa; in experiment [1]; at Human thrombin) were greater than 30 µM, less than 0.1 µM and less than 30 µM, respectively. The “PT (Prothrombin time) 2xPT” value in experiment [2] was less than 50.0 µM.

`CC(C)Nc1ncc(-c2cc(N)cc(NC(=O)C3CC3)c2)n(CC(=O)NCc2ccc(C(=N)N)cc2)c1=O.O=C(O)C(F)(F)F.O=C(O)C(F)(F)F` [Example 144]: the IC50 was greater than 30 µM on Human factor Xa, less than 0.1 µM in experiment [1] and greater than 30 µM at Human thrombin. Besides, the “PT (Prothrombin time) 2xPT” value in experiment [2] is less than 50.0 µM.

As to `CC(C)Nc1ncc(-c2cc(N)cc(C(=O)NCc3ccccc3)c2)n(CC(=O)NCc2ccc(C(=N)N)c(O)c2)c1=O.O=C(O)C(F)(F)F` [Example 161, 3-amino-5-[1-[2-({4-[amino(imino)methyl]-3-hydroxybenzyl}amino)-2-oxoethyl]-5-(isopropylamino)-6-oxo-1,6-dihydropyrazin-2-yl]-N-benzylbenzamide], the IC50 was greater than 30 µM on Human factor Xa, less than 0.1 µM in experiment [1] and greater than 30 µM on Human thrombin. For the same molecule, the “PT (Prothrombin time) 2xPT” value in experiment [2] is less than 50.0 µM.

Consider `CC(C)Nc1ncc(-c2cc(N)cc(C(=O)NCc3ccc(F)cc3)c2)n(CC(=O)NCc2ccc(C(=N)N)c(O)c2)c1=O.O=C(O)C(F)(F)F` [Example 162, 3-amino-5-[1-[2-({4-[amino(imino)methyl]-3-hydroxybenzyl}amino)-2-oxoethyl]-5-(isopropylamino)-6-oxo-1,6-dihydropyrazin-2-yl]-N-(4-fluorobenzyl) benzamide], for which the IC50 at Human factor Xa was greater than 30 µM; in experiment [1], less than 0.1 µM; on Human thrombin it was greater than 30 µM. For the same molecule, the “PT (Prothrombin time) 2xPT” value in experiment [2] was less than 50.0 µM.

`CC[C@H](C)NC(=O)c1cc(N)cc(-c2cnc(NC(C)C)c(=O)n2CC(=O)NCc2c(F)c(O)c(C(=N)N)c(F)c2F)c1.Cl.Cl` [Example 164]: the IC50 at Human factor Xa was greater than 30 µM; in experiment [1] it was less than 0.1 µM; on Human thrombin, greater than 30 µM. Besides, in experiment [2], the “PT (Prothrombin time) 2xPT” value is less than 50.0 µM.

Take `COC(=O)CCNC(=O)c1cc(N)cc(-c2cnc(NC(C)C)c(=O)n2CC(=O)NCc2ccc(C(=N)N)cc2)c1` [Example 165]: the results for the IC50 (on Human factor Xa; in experiment [1]; on Human thrombin) were greater than 30 µM, less than 0.1 µM and greater than 30 µM, respectively. The “PT (Prothrombin time) 2xPT” value in experiment [2] was less than 50.0 µM.

For the origin of these results see patent US20040106626A1, “6-Membered unsaturated heterocyclic compounds useful for selective inhibition of the coagulation cascade” (Pharmacia Corporation, priority 2001, published 2004).
